# From article PMC4132742, “Inhibition of RNA binding to hepatitis C virus RNA-dependent RNA polymerase: a new mechanism for antiviral intervention” (Nucleic Acids Research, 2014)
# Where two headings read alike, the source gives them in different places.
# Legend:
# HCV-NS5BΔ21 RdRp mutants [1] = molecular target: T1, HCV-NS5BΔ21 RdRp mutants (Hepatitis C virus genotype 1b, UniProt O92972, F2581Y); assay type: biochemical; settings: F162Y variant (33% of wild-type activity at baseline)
# T1 construct: His6 (N); made in house; host or cells: Escherichia coli C41(DE3)
# Text: (§1) The cell-free HCV-NS5BΔ21 polymerase assay is based on the real-time measurement of the amount of double-stranded RNA synthesized in the presence of HCV-NS5BΔ21, a homopolymeric RNA template (poly U or poly C, GE Healthcare, Chalfont St. Giles, UK) and the corresponding nucleotide, by means of an intercalating agent (SYBR® Green, Applied Biosystems, Carlsbad, CA, USA), as previously described ([20]). For screening, HCV-NS5BΔ21 polymerase activity was quantified by the slope of fluorescence increase in the presence of 20 μM of the tested flavonoid compounds and compared with the control reaction containing no inhibitor. […] The reported values are the average of three independent measurements performed in duplicate. For kinetics analysis, initial reaction velocities were measured at different nucleotide (adenosine triphosphate (ATP) or GTP) and studied compound concentrations, without pre-incubation and in the presence of 50 μg/ml of the corresponding homopolymeric RNA template (Poly U and Poly C, respectively). The concentration of NS5BΔ21 (J4 strain, genotype 1b) in the reaction was 0.1 mg/ml. Kinetics data were graphically represented as double reciprocal plots. Data points were fitted by linear regression to identify the inhibition mode of the compound.
# HCV-NS5BΔ21 RdRp mutants [2] = molecular target: T2, HCV-NS5BΔ21 RdRp mutants (Hepatitis C virus genotype 1b, UniProt O92972, V2535I); assay type: biochemical; settings: enzyme assay and genotype 1b subgenomic replicon, data not shown
# T2 construct: His6 (N); made in house; host or cells: Escherichia coli C41(DE3)
# Text: as §1
# HCV-NS5BΔ21 RdRp mutants [3] = assay type: biochemical, hepatitis C virus; settings: S96A and G557A mutants
# Text: as §1
# RNA duplex = RNA duplex fluorescence assay; settings: 20 μM compound
# [4] = molecular target: T3, HCV-NS5BΔ21 RdRp genotype 1b (strain J4) (Hepatitis C virus genotype 1b, UniProt O92972); assay: biochemical; settings: range over three genotypes; read-out: IC50 in the enzyme assay, genotypes 1b, 1a and 2a
# Procedure: (§2) The HCV RdRps (NS5B protein) from reference strains H77 (genotype 1a), J4 (genotype 1b) and JFH1 (genotype 2a), truncated of their 21 C-terminal amino acids to ensure solubility (NS5BΔ21) and carrying a hexahistidine tag (His6-Tag) at their N-terminus, were expressed in Escherichia coli C41(DE3) and purified as previously described ([20]). Briefly, cultures were grown at 37°C for ∼1 h and induced with 1 mM isopropyl β-D-thiogalactoside for 4 h at 37°C. […] After sonication, cell lysates were clarified by centrifugation, and chromatography was performed on a Ni-NTA column (Qiagen, Hilden, Germany). The bound protein was eluted in 1 ml fractions with a buffer containing 50 mM NaH2PO4 (pH 8.0), 500 mM NaCl and 250 mM imidazole. NS5BΔ21-enriched fractions were selected using a Bradford colorimetric assay, and HCV-NS5BΔ21 purity was determined by Coomassie-stained sodium dodecyl sulfate-polyacrylamide electrophoresis gel (SDS-PAGE) analysis. Purified NS5BΔ21 fractions were pooled and dialyzed against a buffer containing 5 mM Tris (pH 7.5), 0.2 M sodium acetate, 1 mM DTT, 1 mM ethylenediaminetetraacetic acid (EDTA) and 10% glycerol. […]
# [5] = molecular target: T3, HCV-NS5BΔ21 RdRp genotype 1b (strain J4); assay: biochemical; parameters: His6 (N); made in house; host or cells: Escherichia coli C41(DE3)
# Procedure: The HCV RdRps (NS5B protein) from reference strains H77 (genotype 1a), J4 (genotype 1b) and JFH1 (genotype 2a), truncated of their 21 C-terminal amino acids to ensure solubility (NS5BΔ21) and carrying a hexahistidine tag (His6-Tag) at their N-terminus, were expressed in Escherichia coli C41(DE3) and purified as previously described ([20]). Briefly, cultures were grown at 37°C for ∼1 h and induced with 1 mM isopropyl β-D-thiogalactoside for 4 h at 37°C. […] After sonication, cell lysates were clarified by centrifugation, and chromatography was performed on a Ni-NTA column (Qiagen, Hilden, Germany). The bound protein was eluted in 1 ml fractions with a buffer containing 50 mM NaH2PO4 (pH 8.0), 500 mM NaCl and 250 mM imidazole. NS5BΔ21-enriched fractions were selected using a Bradford colorimetric assay, and HCV-NS5BΔ21 purity was determined by Coomassie-stained sodium dodecyl sulfate-polyacrylamide electrophoresis gel (SDS-PAGE) analysis. Purified NS5BΔ21 fractions were pooled and dialyzed against a buffer containing 5 mM Tris (pH 7.5), 0.2 M sodium acetate, 1 mM DTT, 1 mM ethylenediaminetetraacetic acid (EDTA) and 10% glycerol.
# as §1
# [6] = molecular target: T4, HCV-NS5BΔ21 RdRp genotype 2a (strain JFH1) (Hepatitis C virus genotype 2a, UniProt Q99IB8); assay: cell-free HCV-NS5BΔ21 polymerase assay, genotype 2a (JFH1); assay type: biochemical
# T4 construct: His6 (N); made in house; host or cells: Escherichia coli C41(DE3)
# Procedure: as §2
# [7] = tested on: genotype 2a infectious J6/JFH1 strain; assay: J6/JFH1 infection in cell culture (HCVcc, Huh7.5 cells); assay type: cell-based; settings: Hepatitis C virus, Huh7.5, 72 h, read-out: EC50 J6/JFH1 replication
# Procedure: The plasmid pFL-R-luc2A-ubi-J6/JFH1, containing the full-length cDNA of the chimeric J6/JFH1 HCV genotype 2a clone and the Renilla luciferase gene, was used to generate infectious HCV particles (HCVcc) in Huh7.5 cell culture. Huh7.5 cells were seeded in 48-well plates at a density of 10 000 cells/well, infected 24 h later with 100 μl of HCVcc and incubated overnight at 37°C. After incubation, the supernatants were removed and J6/JFH1-infected cells were washed with fresh medium. Increasing concentrations of the tested compounds were added in a medium containing 1% DMSO, and the cells were incubated 72 h at 37°C. Then, the cells were washed once with Dulbecco's PBS (Invitrogen), and 75 μl Renilla lysis buffer (Promega) was added to each well. Note that 20 μl of lysate was mixed with the luciferase assay substrate, as specified by the manufacturer. Luciferase activity was measured for 10 s in a Berthold luminometer.
# [8] = molecular target: T5, RNA binding to HCV-NS5BΔ21 (Hepatitis C virus genotype 1b, UniProt O92972); assay: HCV-NS5BΔ21-RNA ELISA assay; settings: dose-dependent
# T5 construct: made in house; host or cells: Escherichia coli C41(DE3)
# Procedure: Ninety-six-well plates were coated with streptavidin (100 μg/ml in 0.1 M NaHCO3, 50 μl/well) overnight at 4°C. The plates were washed six times with 200 μl phosphate-buffered saline (PBS)-T and blocked with 50 μl of 3% BSA and 0.1 μg/ml of streptavidin in PBS overnight at 4°C, then four times with 0.1% PBS-Tween. A mix of 5 pmol of biotinylated RNA and 0.5 μg of HCV-NS5BΔ21 previously incubated for 30 min at 37°C in a binding buffer containing 50 mM Tris (pH 7.5), 150 mM NaCl, 0.02 mg/ml yeast tRNA and 0.2 mg/ml BSA was added (50 μl/well) and incubated 1 h at room temperature. The plates were washed six times with 200 μl/well PBS-T, and the 6His mAB/HRP conjugate (Clontech, Mountain View, CA, USA) in PBS 1:1000 (50 μl/well) was added and incubated for 1 h at room temperature. The plates were washed six times with 200 μl/well PBS-T. A mix of enhanced chemiluminescence reagent was added (50 μl/well) and luminescence was measured.
# [9] = tested on: HCV NS5B protein expression; assay: Western blot analysis of NS5B in Con1 replicon cells; assay type: cell-based, hepatitis C virus; settings: Huh7.5 cells, 72 h, increasing concentrations
# Procedure: HCV Con1 replicon-harboring cells were seeded at a density of 90 000 cells per well in 6-well plates. […] NS5B and actin were detected using specific monoclonal antibodies (Enzo Life Sciences, Firmingdale, NY, USA and Sigma Aldrich, Saint Louis, MO, USA, respectively).
# [10] = tested on: HCV genotype 1b subgenomic replicon Con1; assay: microbe, parasite or virus in culture; settings: Hepatitis C virus, Huh7.5, 72 h, read-out: EC50 replicon replication
# Procedure: Each data point represents the average of at least three replicates in cell culture. HCV RNA level reductions after treatment were assessed by comparing the level of HCV RNA in compound-treated cells to that of control cells treated with 1% DMSO.
# [11] = molecular target: T6, HCV-NS5BΔ21 RdRp genotype 1a (strain H77) (Hepatitis C virus genotype 1a, UniProt P27958); assay: cell-free HCV-NS5BΔ21 polymerase assay, genotype 1a (H77); assay type: biochemical
# T6 construct: His6 (N); made in house; host or cells: Escherichia coli C41(DE3)
# Procedure: as §2
# [12] = molecular target: T5, RNA binding to HCV-NS5BΔ21; assay: RNA binding assay (EMSA); settings: fixed concentration of HCV-NS5BΔ21, increasing compound
# Procedure: RNA binding was studied by means of the electrophoretic mobility shift assay (EMSA) with minor modifications. Briefly, 0.5 μg/ml of HCV-NS5BΔ21 was incubated with 1 μg of a 500 bp RNA at 37°C for 30 min in 20 μl of a binding buffer containing 10 mM Tris pH 7.5, 1 mM EDTA, 100 mM KCl, 0.1 mM DTT, 5% vol/vol glycerol, 10 μg/ml bovine serum albumin (BSA), in the presence of increasing concentrations of the tested compound. Samples were then loaded onto a non-denaturing agarose gel. The gel was incubated 20 min in SYBR green EMSA Nucleic Acid Gel Stain (Invitrogen, Carlsbad, CA, USA). After washing, the gel was visualized under ultraviolet transillumination.
# T3 sequence (O92972 2420-2989, stated change not applied): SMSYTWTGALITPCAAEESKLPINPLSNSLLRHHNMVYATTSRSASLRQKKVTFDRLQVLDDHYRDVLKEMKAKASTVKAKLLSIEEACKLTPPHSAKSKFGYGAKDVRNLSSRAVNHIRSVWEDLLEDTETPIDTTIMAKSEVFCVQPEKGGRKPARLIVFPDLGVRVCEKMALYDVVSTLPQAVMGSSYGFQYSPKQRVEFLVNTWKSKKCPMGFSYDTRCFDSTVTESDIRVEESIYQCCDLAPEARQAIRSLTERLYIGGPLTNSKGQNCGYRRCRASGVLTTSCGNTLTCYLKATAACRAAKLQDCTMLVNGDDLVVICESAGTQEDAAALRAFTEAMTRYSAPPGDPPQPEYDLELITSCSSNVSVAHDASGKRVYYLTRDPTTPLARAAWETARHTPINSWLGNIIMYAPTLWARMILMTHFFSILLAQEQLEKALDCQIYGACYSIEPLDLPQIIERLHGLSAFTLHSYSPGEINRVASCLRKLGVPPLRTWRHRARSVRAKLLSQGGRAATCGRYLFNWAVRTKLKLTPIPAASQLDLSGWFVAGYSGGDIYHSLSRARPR
# T5 sequence (O92972 2420-2989, stated change not applied): as above
# T2 sequence (O92972 2420-2989 V2535I): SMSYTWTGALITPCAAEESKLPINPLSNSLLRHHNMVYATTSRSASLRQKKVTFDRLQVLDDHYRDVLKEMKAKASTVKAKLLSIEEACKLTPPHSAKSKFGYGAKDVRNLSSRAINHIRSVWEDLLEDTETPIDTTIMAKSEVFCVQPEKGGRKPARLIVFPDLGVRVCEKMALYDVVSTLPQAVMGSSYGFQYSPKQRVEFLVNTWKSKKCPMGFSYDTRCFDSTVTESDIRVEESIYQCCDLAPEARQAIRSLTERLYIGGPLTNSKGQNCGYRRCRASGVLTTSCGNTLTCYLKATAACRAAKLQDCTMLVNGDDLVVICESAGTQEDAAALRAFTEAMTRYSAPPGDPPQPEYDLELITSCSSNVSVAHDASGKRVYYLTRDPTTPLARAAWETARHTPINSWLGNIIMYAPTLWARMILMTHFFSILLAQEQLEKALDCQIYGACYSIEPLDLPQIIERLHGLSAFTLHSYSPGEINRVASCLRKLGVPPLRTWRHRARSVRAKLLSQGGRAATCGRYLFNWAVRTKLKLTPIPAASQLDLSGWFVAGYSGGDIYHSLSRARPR
# T6 sequence (P27958 2421-2990, stated change not applied): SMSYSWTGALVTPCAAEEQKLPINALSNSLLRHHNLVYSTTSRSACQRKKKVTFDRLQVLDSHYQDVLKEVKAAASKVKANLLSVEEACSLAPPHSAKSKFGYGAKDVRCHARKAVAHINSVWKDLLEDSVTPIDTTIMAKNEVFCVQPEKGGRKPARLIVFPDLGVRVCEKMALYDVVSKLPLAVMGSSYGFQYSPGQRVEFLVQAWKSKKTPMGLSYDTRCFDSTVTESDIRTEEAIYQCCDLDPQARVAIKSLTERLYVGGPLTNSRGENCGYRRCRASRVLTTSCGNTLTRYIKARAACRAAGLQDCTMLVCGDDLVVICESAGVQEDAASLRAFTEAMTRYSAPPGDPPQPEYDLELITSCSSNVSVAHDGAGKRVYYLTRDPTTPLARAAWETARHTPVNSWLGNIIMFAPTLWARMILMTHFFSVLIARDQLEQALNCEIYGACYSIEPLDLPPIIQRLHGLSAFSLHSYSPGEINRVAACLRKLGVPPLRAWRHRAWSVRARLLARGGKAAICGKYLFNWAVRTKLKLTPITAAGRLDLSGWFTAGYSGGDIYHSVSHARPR
# T1 sequence (O92972 2420-2989 F2581Y): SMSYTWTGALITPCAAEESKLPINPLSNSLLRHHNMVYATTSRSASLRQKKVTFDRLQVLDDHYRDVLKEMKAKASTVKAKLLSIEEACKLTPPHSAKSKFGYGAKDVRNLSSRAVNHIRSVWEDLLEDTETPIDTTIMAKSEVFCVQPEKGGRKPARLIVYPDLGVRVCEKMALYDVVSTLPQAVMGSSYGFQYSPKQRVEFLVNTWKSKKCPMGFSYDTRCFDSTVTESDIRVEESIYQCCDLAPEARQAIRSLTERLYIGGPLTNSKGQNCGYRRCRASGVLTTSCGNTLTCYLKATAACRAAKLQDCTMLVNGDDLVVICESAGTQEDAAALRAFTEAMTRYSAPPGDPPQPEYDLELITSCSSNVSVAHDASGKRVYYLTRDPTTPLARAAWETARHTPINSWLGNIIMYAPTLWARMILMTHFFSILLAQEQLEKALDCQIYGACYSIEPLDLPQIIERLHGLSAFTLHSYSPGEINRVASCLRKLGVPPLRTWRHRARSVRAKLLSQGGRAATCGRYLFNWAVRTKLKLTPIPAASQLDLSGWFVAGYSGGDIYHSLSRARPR
smiles,measurement,setting,value
O=c1c(O)c(-c2ccc(O)c(O)c2)oc2cc(O)c(O)c(O)c12 [Quercetagetin],reduction of catalytic activity by the compound,HCV-NS5BΔ21 RdRp mutants [1],3 fold
same,susceptibility of V116I variant,HCV-NS5BΔ21 RdRp mutants [2],did not reduce
same,change of susceptibility,HCV-NS5BΔ21 RdRp mutants [3],No change
same,RNA duplex formation,RNA duplex,not inhibited
same,IC50,[4],2.8 to 6.1 µM
same,inhibition at 20 µM,[5]; 20 μM compound,85.6%
same,Slope of fluorescence increase,"[5]; 20 μM compound, no treatment control slope 62.0",8.9
same,IC50,"[5]; genotype 1b (strain J4), read-out: IC50 HCV-NS5BΔ21 polymerase activity",4.3 ± 0.7 µM
same,mode of inhibition (double-reciprocal plots),[5]; increasing ATP or GTP with poly-U or poly-C,non-competitive
same,IC50,[6],6.1 ± 1.6 µM
same,EC50,[7],40.2 ± 17.7 µM
same,"inhibition of RNA binding, EC50",[8],of the same order as that in the enzyme assay
same,NS5B protein expression,[9],inhibited NS5B protein expression in a dose-dependent manner
same,EC50,[10],5.4 ± 3.3 µM
same,IC50,[11],2.8 ± 0.4 µM
same,amount of free RNA,[12],increased in a quercetagetin concentration-dependent manner
